Test results as given in patent US8974814B2, “Layered drug delivery polymer monofilament fibers” (California Institute of Technology, priority 2007, dated 2015).

Key:
[1] = Isothermal titration calorimetry of octanoic acid with cyclodextrin; format: binding; details: 1:1 complex, DPBS
Method: The binding energy between octanoic acid and -cyclodextrin (-CD) was determined by isothermal titration calorimetry. Briefly, solutions used of […]-CD and 0.2 M octanoic acid were made in DPBS. Ten injections of […] each of the octanoic acid solution were made into 1.37 ml of the cyclodextrin in a Microcal ITC unit. A 1:1 complex is formed with an equilibrium constant of 1900.

[2] = Levofloxacin stability on formulation at elevated temperature / autoclaving; format: physicochemical; details: HPLC, solution equilibrated at 60° C.
Text: Wet-spinning fibers from a solution of levofloxacin and PLGA results in a product that is porous with a rough surface (on the sub-micron length scale). The internal morphology of the fiber is consistent with fiber prepared in previous work via wet-spinning. (See, e.g., Gao, H., et al., Journal of Controlled Release 2007; 118(3):325-332, the disclosure of which is incorporated herein by reference.) The protuberances on the surface of the fiber are likely the result of the drug forming aggregates on the surface, and/or by the drug distorting the polymer matrix at the surface. Fiber B has larger more discrete protuberances relative to fibers A and C. This may be due to fiber B having suspended particles of drug present in the polymer solution before wet spinning. […] Fiber C was manufactured at an elevated temperature to absolutely assure total drug dissolution in the polymer/DMSO solution. […] (See e.g., Fujimoto, K., et al., Jpn J Pharmacol 1995; 69(4):443-445, the disclosure of which is incorporated herein by reference.)

CCCCCCCC(=O)O [octanoic acid]
equilibrium constant [1]: 1900

C[C@H]1COc2c(N3CCN(C)CC3)c(F)cc3c(=O)c(C(=O)O)cn1c23 [Levofloxacin, levofloxacin]
stability after formulation at higher temperatures [2]: no other peaks were observed in the HPLC chromatogram
